Measurements: US8586612B2, “Piperidinesulfonylureas and -thioureas, their preparation, their use and pharmaceutical compositions comprising them” (Sanofi-Aventis Deutschland GmbH, priority 2004, dated 2013)

Tests used:
guinea pig heart = experiment: Effect on coronary flow under hypoxic conditions in the isolated perfused Langendorff guinea pig heart; conditions: 1 μM in perfusate, added 10 minutes before hypoxia; averages of 3 hearts
Source text: 3) Effect on Coronary Flow Under Hypoxic Conditions in the Guinea Pig Heart
It is known that an oxygen deficiency in coronary vessels leads to a reflectory dilatation of the vessels in order to compensate the oxygen deficiency. The vascular KATP channel (SUR2B/Kir6.2) plays an important part in this. Its opening leads to hyperpolarization of the cell membrane of the smooth muscle cell and consequently to a reduced calcium influx, resulting in a dilatation of the vessel. Blockade of the vascular KATP channel inhibits the widening of the vessel and thus adjustment of the coronary flow under hypoxic conditions. The test model used for determining the coronary flow was an isolated perfused Langendorff heart of a guinea pig.
Guinea pigs of both sexes were sacrificed by a blow to the head. The heart was quickly removed, and the aorta was canulated. After the canulation, the heart was suspended in the perfusion solution in the Langendorff apparatus, and a latex balloon was inserted into the left ventricle. The coronary flow was recorded using a flow transducer, type E, from Hellige (Freiburg, Germany). The heart was perfused with a constant pressure of 55 mm Hg. Hypoxia was induced by changing the aeration from 95% oxygen/5% carbon dioxide (=normoxia) to 20% oxygen/75% nitrogen/5% carbon dioxide. […]

[1] = tested on: guinea pig papillary muscle; experiment: Effect on the action potential duration (APD90) on the guinea pig papillary muscle under hypoxia; conditions: test substance 2 μmol/l in bath, 60 minutes after addition; 100% = APD90 under hypoxia before substance, 0% = normoxic APD90
Source text: 1) Effect on the Action Potential Duration on the Guinea Pig Papillary Muscle
ATP deficiency states like those observed in the cardiomyocyte during an ischemia lead to a shortening of the action potential duration. They are regarded as one of the causes of so-called reentry arrhythmias, which can cause sudden cardiac death. The opening of ATP-sensitive potassium channels through the lowering of the ATP level is regarded as the cause thereof (ATP=adenosine triphosphate). For measuring the action potential on the guinea pig papillary muscle, a standard microelectrode technique was employed.
Guinea pigs of both sexes were sacrificed by a blow to the head, the heart was removed, and the papillary muscles were dissected out and suspended in an organ bath. The organ bath was rinsed with Ringer's solution (136 mmol/l NaCl, 3.3 mmol/l KCl, 2.5 mmol/l CaCl2, 1.2 mmol/l KH2PO4, 1.1 mmol/l MgSO4, 5.0 mmol/l glucose, 10.0 mmol/l 1-(2-hydroxyethyl)piperazine-4-(2-ethanesulfonic acid) (HEPES), pH adjusted to 7.4 with NaOH) and aerated with 100% oxygen at a temperature of 37° C. The muscle was stimulated via an electrode with square-wave pulses of 1 V and 1 ms duration and a frequency of 1 Hz. The action potential was derived through a glass microelectrode which is inserted intracellularly and filled with 3 mol/l KCl solution, and was recorded. The action potential was amplified using an amplifier from Hugo Sachs (March-Hugstetten, Germany) and stored and evaluated by a computer. The duration of the action potential was determined at a degree of repolarization of 90% (APD90). The shortening of the action potential was induced after an equilibration time of 30 minutes by rinsing the papillary muscle with a hypoxic solution. For this, the glucose was removed, the HEPES buffer replaced by PIPES buffer (piperazine-1,4-bis(2-ethanesulfonic acid)), the pH adjusted to 6.5 and aeration was carried out with 100% nitrogen. This led after a period of 60 minutes to a marked shortening of the APD90. After this time, the test substance was added in the form of a stock solution in propanediol, so that the concentration of the substance in the bath solution was 2 μmol/l. After a further 60 minutes, the re-prolongation of the action potential again recorded. The table below indicates the overall shortening, resulting after hypoxia and addition of test substance, of the APD90 value in percent, i.e. the percentage shortening of the APD90 still remaining after addition of the test substance under hypoxia, where 100% corresponds to the APD90 value under hypoxic conditions before addition of the test substance and 0% corresponds to the APD90 value under normoxic conditions at the start of the experiment.

hSUR1/hKir6.2 = hSUR1/hKir6.2 (Homo sapiens, UniProt Q09428); experiment: Effect on membrane potential of hSUR1/hKir6.2-transfected CHO cells (hypoglycemic effect), DiBAC4 fluorescence, FLIPR; type: cell-based; conditions: CHO cells activated with diaxozide, averages of at least 4 experiments
Chain of hSUR1/hKir6.2 (Q09428 whole entry): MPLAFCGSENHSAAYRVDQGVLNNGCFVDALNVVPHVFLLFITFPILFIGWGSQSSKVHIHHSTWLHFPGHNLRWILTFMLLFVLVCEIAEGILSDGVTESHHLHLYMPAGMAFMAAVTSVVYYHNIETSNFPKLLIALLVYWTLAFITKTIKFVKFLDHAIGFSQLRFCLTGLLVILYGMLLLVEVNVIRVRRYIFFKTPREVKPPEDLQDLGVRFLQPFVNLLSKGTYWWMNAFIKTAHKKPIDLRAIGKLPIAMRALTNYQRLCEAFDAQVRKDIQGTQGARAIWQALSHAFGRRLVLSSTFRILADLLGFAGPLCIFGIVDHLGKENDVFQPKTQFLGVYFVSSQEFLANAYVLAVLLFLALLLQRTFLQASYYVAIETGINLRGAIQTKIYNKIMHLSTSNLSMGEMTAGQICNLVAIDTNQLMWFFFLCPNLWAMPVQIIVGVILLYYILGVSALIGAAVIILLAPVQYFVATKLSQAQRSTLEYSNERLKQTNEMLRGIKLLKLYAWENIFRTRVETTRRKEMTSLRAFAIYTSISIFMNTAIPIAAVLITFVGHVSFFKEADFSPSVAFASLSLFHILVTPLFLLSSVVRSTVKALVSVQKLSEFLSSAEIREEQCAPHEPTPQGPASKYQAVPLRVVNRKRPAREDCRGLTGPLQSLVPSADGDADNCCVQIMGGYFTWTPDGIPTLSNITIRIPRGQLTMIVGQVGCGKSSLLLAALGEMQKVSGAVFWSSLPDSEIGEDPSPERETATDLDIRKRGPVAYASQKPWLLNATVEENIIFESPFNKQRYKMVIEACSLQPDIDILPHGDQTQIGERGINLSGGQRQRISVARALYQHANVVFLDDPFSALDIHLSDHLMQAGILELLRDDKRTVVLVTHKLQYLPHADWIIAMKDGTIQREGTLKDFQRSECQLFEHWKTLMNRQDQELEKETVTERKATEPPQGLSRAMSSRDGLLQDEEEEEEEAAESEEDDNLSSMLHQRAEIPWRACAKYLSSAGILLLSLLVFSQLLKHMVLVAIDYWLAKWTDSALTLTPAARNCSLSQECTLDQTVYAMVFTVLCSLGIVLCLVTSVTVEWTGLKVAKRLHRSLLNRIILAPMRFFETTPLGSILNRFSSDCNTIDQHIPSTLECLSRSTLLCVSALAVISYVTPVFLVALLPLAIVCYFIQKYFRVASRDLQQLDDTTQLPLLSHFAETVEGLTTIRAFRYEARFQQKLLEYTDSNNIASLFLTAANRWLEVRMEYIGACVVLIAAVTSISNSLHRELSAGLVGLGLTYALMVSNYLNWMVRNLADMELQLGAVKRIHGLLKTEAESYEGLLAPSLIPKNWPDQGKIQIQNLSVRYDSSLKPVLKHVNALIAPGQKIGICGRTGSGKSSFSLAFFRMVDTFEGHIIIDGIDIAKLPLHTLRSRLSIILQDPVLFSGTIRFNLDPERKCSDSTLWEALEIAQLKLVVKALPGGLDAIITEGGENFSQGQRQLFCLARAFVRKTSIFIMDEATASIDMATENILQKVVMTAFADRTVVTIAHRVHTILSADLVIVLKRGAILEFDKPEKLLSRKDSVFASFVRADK
Chain of hSUR1/hKir6.2 (Q14654 whole entry partner): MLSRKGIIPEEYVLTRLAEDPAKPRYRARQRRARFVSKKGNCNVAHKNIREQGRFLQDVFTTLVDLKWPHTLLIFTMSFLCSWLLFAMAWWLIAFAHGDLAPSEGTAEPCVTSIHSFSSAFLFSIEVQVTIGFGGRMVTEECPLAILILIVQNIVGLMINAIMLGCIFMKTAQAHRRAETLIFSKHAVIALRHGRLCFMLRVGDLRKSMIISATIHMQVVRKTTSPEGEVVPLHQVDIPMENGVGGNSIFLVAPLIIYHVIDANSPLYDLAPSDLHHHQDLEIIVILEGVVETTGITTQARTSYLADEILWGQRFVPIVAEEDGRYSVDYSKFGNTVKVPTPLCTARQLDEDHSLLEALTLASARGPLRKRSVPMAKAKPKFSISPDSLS
Source text: 2) Effect on hSUR1/hKir6.2-Transfected CHO Cells (Hypoglycemic Effect)
The target organ of these compounds is the β cell of the pancreas, where they block ATP-sensitive potassium channels and bring about, through influencing the electric potential of the cell membrane, a release of the blood sugar-lowering hormone insulin. […] The extent of this depolarization of the cell membrane caused by the compounds according to the invention was investigated on CHO cells which were transfected with the cloned components of human pancreatic ATP-sensitive potassium channels, hSUR1 and hKir6.2, and were activated by pretreatment with diaxozide, an opener of ATP-sensitive potassium channels. The strength of action of a compound on the membrane potential of these transfected and activated CHO cells is a measure of the blood sugar-lowering potential of this compound.
On the day of the measurement, the microtiter plates were washed three times with PBS (physiological buffer solution). 90 μl remained in each well at the last washing step. The cells were then loaded with the fluorescent dye DiBAC4 (Molecular Probes, Portland, Oreg., USA) by adding 90 μl of a 10 micromolar solution of DIBAC4 in PBS and 90 μl of a 400-micromolar solution of diaxozide in PBS to each well. After an incubation time of 30 minutes at 37° C., the microtiter plates were then transferred into a Fluorescent Microtiter Plate Reader (FLIPR; Molecular Devices, Sunnyvale, Calif., USA). The cells were excited using an argon laser (Innova 90; Coherent, Santa Clara, Calif., USA) at a wavelength of 488 nm, and the fluorescence emission was measured using a CCD camera. Measurement of the membrane potential began after 4 minutes by adding 20 μl of a solution of the test substance or of the control solution to each well, measuring the resulting fluorescence emission every 20 seconds over a period of 20 minutes. The data listed below are averages of at least 4 experiments.

SMILES	Hypoxic coronary flow compared with the control in percent (guinea pig heart) [%]	Remaining shortening of the APD90 under hypoxia in percent [1] [%]	hSUR1/hKir6.2 blockade at 0.1 μM (hSUR1/hKir6.2) [%]	hSUR1/hKir6.2 blockade at 1 μM (hSUR1/hKir6.2) [%]	hSUR1/hKir6.2 blockade at 10 μM (hSUR1/hKir6.2) [%]	melting point [°C]
COc1ccc(Cl)cc1C(=O)NCCc1ccc(S(=O)(=O)NC(=O)NC2CCCCC2)cc1 [Comparison (1), glibenclamide, reference compound]	35					
CNC(=S)NS(=O)(=O)N1CCC(CCNC(=O)c2cc(Cl)ccc2OC)CC1 [Example 1, 5-Chloro-2-methoxy-N-(2-(1-(3-methylthioureidosulfonyl)piperidin-4-yl)ethyl)benzamide]		80	<1	2	41	
CCNC(=S)NS(=O)(=O)N1CCC(CCNC(=O)c2cc(Cl)ccc2OC)CC1 [Example 2, 5-Chloro-2-methoxy-N-(2-(1-(3-ethylthioureidosulfonyl)piperidin-4-yl)ethyl)benzamide]		82	<1	4	67	
CCCNC(=S)NS(=O)(=O)N1CCC(CCNC(=O)c2cc(Cl)ccc2OC)CC1 [Example 3, 5-Chloro-2-methoxy-N-(2-(1-(3-propylthioureidosulfonyl)piperidin-4-yl)ethyl)benzamide]		67	5	55	89	
COc1ccc(Cl)cc1C(=O)NCCC1CCN(S(=O)(=O)NC(=S)NC(C)C)CC1 [Example 4, 5-Chloro-2-methoxy-N-(2-(1-(3-isopropylthioureidosulfonyl)piperidin-4-yl)ethyl)benzamide]	61	54	2	53	89	
COc1ccc(Cl)cc1C(=O)NCCC1CCN(S(=O)(=O)NC(=S)NC2CC2)CC1 [Example 5, 5-Chloro-2-methoxy-N-(2-(1-(3-cyclopropylthioureidosulfonyl)piperidin-4-yl)ethyl)benzamide]						144 to 145
COc1ccc(Cl)cc1C(=O)NCCC1CCN(S(=O)(=O)NC(=S)NC2CCCCC2)CC1 [Example 6, 5-Chloro-2-methoxy-N-(2-(1-(3-cyclohexylthioureidosulfonyl)piperidin-4-yl)ethyl)benzamide]						146 to 148
CNC(=O)NS(=O)(=O)N1CCC(CCNC(=O)c2cc(Cl)ccc2OC)CC1 [Example 7, 5-Chloro-2-methoxy-N-(2-(1-(3-methylureidosulfonyl)piperidin-4-yl)ethyl)benzamide]		68	<1	15	60	
CCNC(=O)NS(=O)(=O)N1CCC(CCNC(=O)c2cc(Cl)ccc2OC)CC1 [Example 8, 5-Chloro-2-methoxy-N-(2-(1-(3-ethylureidosulfonyl)piperidin-4-yl)ethyl)benzamide]		54	8	55	102	
CCCNC(=O)NS(=O)(=O)N1CCC(CCNC(=O)c2cc(Cl)ccc2OC)CC1 [Example 9, 5-Chloro-2-methoxy-N-(2-(1-(3-propylureidosulfonyl)piperidin-4-yl)ethyl)benzamide]						140 to 142
COc1ccc(Cl)cc1C(=O)NCCC1CCN(S(=O)(=O)NC(=O)NC2CC2)CC1 [Example 11, 5-Chloro-2-methoxy-N-(2-(1-(3-cyclopropylureidosulfonyl)piperidin-4-yl)ethyl)benzamide]						138 to 139
